{
  "source": "patent US12703885B2",
  "about": "“Method for predicting the response to CDK4/6 inhibitor therapy in cancer patients” (GBG FORSCHUNGS GMBH, priority 2021, dated 2026)",
  "test_system": "HR+, HER2− eBC at high risk of recurrence",
  "assay": "PENELOPE-B randomized, double-blind, placebo-controlled Phase 3 study; Cox regression for endpoint iDFS",
  "assay_type": "in vivo, human",
  "source_text": "The data underlying the present invention were obtained in the context of the PENELOPE^B study (NCT01864746). PENELOPE^B is a randomized, double-blind, placebo-controlled Phase 3 study comparing one year of palbociclib plus at least five years of standard adjuvant endocrine therapy to placebo plus at least five years of standard adjuvant endocrine therapy in 1,250 women with HR+, HER2− eBC at high risk of recurrence who have residual invasive disease after completing neoadjuvant chemotherapy. Patients in the trial scored 3 or higher (or 2 if there were lymph node metastases at the time of surgery) on the clinical-pathologic stage—estrogen/grade (CPS-EG). The CPS-EG is a validated risk assessment tool combining: clinical stage before neoadjuvant treatment, pathological stage after neoadjuvant treatment, grading and estrogen-receptor status. More than 190 clinical sites in 12 countries around the globe participated in PENELOPE-B. The study opened in November 2013 and closed recruitment on Dec. 31, 2017. RNA was extracted from post-surgical residual tumor tissue of patients from the Penelope^B study (GBG 78) and quantified using the HTG EdgeSeq Oncology Biomarker Panel (HTG Molecular Diagnostics Inc.) resulting in a so-called count value for each of the 2559 genes in the assay. Quality control measures were performed as described by the manufacturer. For 906 patients HTG measurements were successfully performed and passed said quality controls. […] Each regression model was calculated based on 906 patients from the Penelope^B study. […] The 20 genes with smallest p-values for the interaction were selected. • 2) For each gene from step 1) the technical eligibility for measurement was evaluated. […] In the cohort of 782 patients the gene expression value was adjusted to the lower limit for between 0 and 16 patients, and to the upper limit for between 0 and 8 patients. • 4) The correlation between genes was analyzed by hierarchical clustering and analysis of the Pearson correlation coefficient matrix based on graphical methods. […]",
  "data": [
    {"smiles": "CC(=O)c1c(C)c2cnc(Nc3ccc(N4CCNCC4)cn3)nc2n(C2CCCC2)c1=O", "note": "[palbociclib]", "values": [
      {"measurement": "HR for iDFS, palbociclib vs. placebo (95% CI)", "setting": "overall population, n=906, plus standard adjuvant endocrine therapy, no significant difference between arms", "result": "0.89 (0.69-1.16)"},
      {"measurement": "HR (95% CI), arm (palbociclib vs placebo), iDFS", "setting": "subgroup score3dich high (above median of average of PIAS2, MAP2K6, DSG3, ABCC12, IFT52 expression)", "result": "0.54 (0.37-0.79)"},
      {"measurement": "HR (95% CI), arm (palbociclib vs placebo), iDFS", "setting": "subgroup score3dich low (below median of average of PIAS2, MAP2K6, DSG3, ABCC12, IFT52 expression)", "result": "1.45 (1.00-2.09)"}
    ]}
  ]
}
